Experimental findings from patent US10557118B2, “Compositions and methods for prevention or treatment of neoplastic disease in a mammalian subject” (The Government of the USA, as represented by the Secretary, …, priority 2006, dated 2020) are described below.

The test system of assay [1] is HLA A-11. In words: Binding of epitope to HLA A-11. Set-up: species or system human. The note with it: compared with the other epitopes.
The test system of assay [2] is RCC reactive SAUJ T-cell clone. In words: ELISA of IFN-gamma production by RCC reactive CTL co-cultured with peptide-pulsed COS7-A11 cells. It is filed as cell-based, human. As for the experimental part:
COS7-A11 cells were pulsed with varying concentrations of each peptide then screened for their ability to induce IFN-gamma production by RCC reactive CTL. The 10 mer Pep-A104-K133 (ATFLGSLTWK) (SEQ ID NO: 1) induced dose dependent IFN-gamma production first evident in the 1 nM concentration range consistent with this peptide being the antigenic HLA-A11 restricted antigen recognized by the RCC reactive SAUJ T-cell clone.
Cultured T-cell lines or T cell clones were added to target cells in round-bottom 96-well plates. After 24 hours co culture at 37° C., 50 μL of supernatants was collected to measure IFN-g or GM-CSF secretion by ELISA (ENDOGEN, Woburn, Mass.) in duplicate assays. The concentration of reagents and the ELISA procedure recommended by ENDOGEN was followed without deviation. Absorbance was detected at 450 nm using an ELISA reader (VICTOR3 Multilabel counter; Perkin Elmer, Wellesley, Mass.) and data were calculated based on the standard curve generated from commercial recombinant human IFN-g or GM-CSF standards (ENDOGEN).
A total of 8 peptides (three 9-mers and five 10-mers) from the common sequence of CT-RCC 8 and CT-RCC 9 were synthesized and purchased from Genemed Synthesis, Inc. The identity and purity of each of the peptides were confirmed by mass spectrometer and high-performance liquid chromatography analysis. […]

“ATFLGSLTWK [Pep-A104-K133, HLA-A11-restricted 10-mer peptide from the common region of CT-RCC 8 and CT-RCC 9]”: the “level of binding the HLA A-11” value in assay [1] is reported as “highest level of binding”. The “concentration range at which dose dependent IFN-gamma production is first evident” value in assay [2] (COS7-A11 cells pulsed with varying peptide concentrations (0.1 to 10000 nM), SAUJ-CTL clone BZ-4) was about 1 nM. The “level of IFN-γ secretion by human T cells” value in assay [2] (compared with the other epitopes) is “highest level of IFN-γ secretion”.
